From patent US3994890A, “1-Aminoalkyl, 3-phenyl indazoles” (Chugai Seiyaku Kabushiki Kaisha, priority 1974, dated 1976)
Structures can show the parent of a compound that is named as a salt. Where two headings read alike, the source gives them in different places.

What was measured:
[1] = tested on: hexobarbital-treated ddY Strain male mice; assay: Barbiturate potentiation (duration of loss of righting reflex due to hexobarbital); format: in vivo, mouse (ddY Strain); conditions: 0.5 h, read-out: Barbiturate potentiation (ratio with control groups)
Procedure: ddY Strain male mice (4 - 5 weeks old, body weight 23 - 28 g) in groups of 5 mice each were orally treated with 100 mg/kg of samples and 30 minutes after the oral administration the mice were intraperitoneally treated with 100 mg/kg of hexobarbital. Duration of loss of righting reflex due to hexobarbital was determined and barbiturate potentiation ratios with control groups were calculated. Imipramine, desipramine and diazepam were used as control drugs.

[2] = tested on: hexobarbital-treated ddY Strain male mice; assay: as above; format: in vivo, mouse (ddY Strain); conditions: Mus musculus, po, 0.5 h, read-out: Barbiturate potentiation (ratio with control groups)
Acute toxicity, rat = conditions: in vivo, po
Excerpt: (§1) ddY Strain mice and Wistar-Imamichi strain rats were used to inspect acute toxicity and subacute toxicity (30 days; oral administration) of a compound of the formula [I].

[3] = tested on: Wistar-Imamichi strain rats; assay: Subacute toxicity (30 days; oral administration), rat; format: in vivo, rat (Wistar-Imamichi strain)
Excerpt: as §1

Acute toxicity, mouse = format: in vivo; conditions: in vivo, po
Excerpt: as §1

ddY Strain mice = assay: Acute toxicity, mouse; format: in vivo; conditions: p.o.
Excerpt: as §1

[4] = mouse, 100 mg/kg oral, 30 minutes before 100 mg/kg i.p. hexobarbital, loss of righting reflex duration
[5] = 30 days oral, at a dose of 50 mg/kg

SMILES	response vs control in vivo at 100 mg/kg [1, 4] [%]	other results
Cc1ccc2c(c1)c(-c1ccccc1)nn2CCCN1CCOCC1 [Example 15, 1-morpholinopropyl-3-phenyl-5-methylindazole hydrochloride]	140	
Cc1ccc2c(c1)c(-c1ccccc1)nn2CN1CCCC1 [Example 20, 1-pyrrolidinomethyl-3-phenyl-5-methylindazole hydrochloride]	160	
CN1C(=O)CN=C(c2ccccc2)c2cc(Cl)ccc21 [diazepam]		response vs control in vivo at 5 mg/kg [2]: 230%
CCN(CC)CCn1nc(-c2ccccc2)c2ccccc21 [Example 6, 1-diethylaminoethyl-3-phenylindazole hydrochloride]	290	
CN(C)CCn1nc(-c2ccccc2)c2cc(Cl)ccc21 [Example 2, 1-dimethylaminoethyl-3-phenyl-5-chloroindazole hydrochloride]	150	
Cc1ccc2c(c1)c(-c1ccccc1)nn2CCCN [Example 34, 1-aminopropyl-3-phenyl-5-methylindazole]	250	
c1ccc(-c2nn(CN3CCOCC3)c3ccccc23)cc1 [Example 23, 1-morpholinomethyl-3-phenylindazole]	130	
CN(C)CCCn1nc(-c2ccccc2)c2cc(Cl)ccc21 [Example 8, 1-dimethylaminopropyl-3-phenyl-5-chloroindazole hydrochloride]	130	
CN(C)CCn1nc(-c2ccccc2)c2ccccc21 [Example 1, 1-dimethylaminoethyl-3-phenylindazole hydrochloride]	300	
Clc1ccc2c(c1)c(-c1ccccc1)nn2CN1CCOCC1 [Example 19, 1-morpholinomethyl-3-phenyl-5-chloroindazole]	120	
O=C1c2ccccc2C(=O)N1CCCn1nc(-c2ccccc2)c2cc(Cl)ccc21 [Example 25, 1-phthalimidopropyl-3-phenyl-5-chloroindazole]	110	
Cc1ccc2c(c1)c(-c1ccccc1)nn2CCCN1CCN(C)CC1 [Example 17, 1-N-methylpiperazinopropyl-3-phenyl-5-methylindazole hydrochloride]	100	
Cc1ccc2c(c1)c(-c1ccccc1)nn2CCCN(C)C [Example 10, 1-dimethylaminopropyl-3-phenyl-5-methylindazole]	100	LD50 (Acute toxicity, rat): 3000 to 5000 mg/kg; Subacute toxicity: fatality ([3]; 30 days oral, at a dose of 100 mg/kg): not fatal; Subacute toxicity: symptoms ([3]; in vivo, po, 100 mg/kg): no abnormal symptom; LD50 (Acute toxicity, mouse): 580 mg/kg; LD50 (ddY Strain mice): 660 mg/kg
c1ccc(-c2nn(CCCN3CCCCC3)c3ccccc23)cc1 [Example 11, 1-piperidinopropyl-3-phenylindazole hydrochloride]	130	
Cc1ccc2c(c1)c(-c1ccccc1)nn2CCCN1CCCCC1 [Example 12, 1-piperidinopropyl-3-phenyl-5-methylindazole hydrochloride]	100	
Cc1ccc2c(c1)c(-c1ccccc1)nn2CCN(C)C [Example 3, 1-dimethylaminoethyl-3-phenyl-5-methylindazole hydrochloride]	150	
CNCCCn1nc(-c2ccccc2)c2cc(C)ccc21 [Example 29, 1-N-monomethylaminopropyl-3-phenyl-5-methylindazole hydrochloride]	170	
CN(C)CCCn1nc(-c2ccccc2)c2ccccc21 [Example 7, 1-dimethylaminopropyl-3-phenylindazole hydrochloride]	190	
CNCCCN1c2ccccc2CCc2ccccc21 [desipramine, reference compound]		response vs control in vivo at 100 mg/kg ([1]; Mus musculus, po): 150%
CCN(CC)CCn1nc(-c2ccccc2)c2cc(Cl)ccc21 [Example 4, 1-diethylaminoethyl-3-phenyl-5-chloroindazole hydrochloride]	120	
CN(C)CCCN1c2ccccc2CCc2ccccc21 [imipramine]		Subacute toxicity: blood urine nitrogen [3, 5]: reduced; Subacute toxicity: fatality [3, 5]: not fatal; Subacute toxicity: hemoglobin [3, 5]: reduced; response vs control in vivo at 100 mg/kg ([1]; Mus musculus, po): 130%
Clc1ccc2c(c1)c(-c1ccccc1)nn2CCN1CCOCC1 [Example 14, 1-morpholinoethyl-3-phenyl-5-chloroindazole hydrochloride]	170	
